From PubChem BioAssay (NCI)
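Five concentrations, 48 hours, 96-well plates. Abbreviation: GI50, concentration required for 50% inhibition of growth. TGI: total growth inhibition.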

What was measured:
Test in all cases: NCI-60 cell line screen, 48 h
RPMI-8226 leukemia = test system: RPMI-8226 leukemia
K-562 leukemia = test system: K-562 leukemia
U251 CNS = test system: U251 CNS
TK-10 renal = test system: TK-10 renal
OVCAR-3 ovarian = test system: OVCAR-3 ovarian
786-0 renal = test system: 786-0 renal
HCT-116 colon = test system: HCT-116 colon
SR leukemia = test system: SR leukemia
MALME-3M melanoma = test system: MALME-3M melanoma
HOP-92 NSCLC = test system: HOP-92 NSCLC

Compound	TGI (RPMI-8226 leukemia) [µM]	TGI (K-562 leukemia) [µM]	TGI (U251 CNS) [µM]	TGI (TK-10 renal) [µM]	TGI (OVCAR-3 ovarian) [µM]	TGI (786-0 renal) [µM]	TGI (HCT-116 colon) [µM]	TGI (SR leukemia) [µM]	TGI (MALME-3M melanoma) [µM]	TGI (HOP-92 NSCLC) [µM]	GI50 (RPMI-8226 leukemia) [µM]	GI50 (K-562 leukemia) [µM]	GI50 (U251 CNS) [µM]	GI50 (TK-10 renal) [µM]	GI50 (OVCAR-3 ovarian) [µM]	GI50 (786-0 renal) [µM]	GI50 (HCT-116 colon) [µM]	GI50 (SR leukemia) [µM]	GI50 (MALME-3M melanoma) [µM]	GI50 (HOP-92 NSCLC) [µM]
COc1c2c(c3c(c1CCC(=O)O)OC(C)(C)C=C3)OC(C)(C)C=C2	> 100	> 100	> 100	> 100	> 100	> 100	> 100	> 100	> 100											
N#CC(C(=O)/C(=N/NC(=O)c1ccccc1O)C(C#N)c1ccc(Cl)cc1)c1ccc(Cl)cc1 (centres undefined)	53	79.1	22.5	31.3	35.5	29.9	40.2		25.5											
CNS(=O)(=O)NN(C)S(=O)(=O)c1ccc(F)cc1	> 100	> 100	> 100	> 100	> 100	> 100	> 100		> 100	> 100										
Cc1cc(N(CCC#N)S(=O)(=O)c2ccccc2)ccc1/C=C1N=C(/C=C/c2ccccc2)OC\1=O	> 100	> 100	> 100	> 100	> 100	> 100	> 100		> 100											
Cc1cccc(NC(=O)CC(=O)N2N=C(N(CCC#N)c3ccc(Cl)cc3)CC2c2ccccc2)c1 (centres undefined)		> 100	> 100	> 100	> 100	> 100	> 100	> 100	> 100	> 100										
COc1ccc2c(c1)C(O)(C(F)(F)F)c1cc(C(=O)C(F)(F)F)c3ccccc3c1N2 (centres undefined)		15.7		27.4	29.4	26.3				29.6										
CCOC(=O)C1=C(C)N(Cc2ccccc2)C(C)=C(C(=O)OCC)C1c1ccccc1O		> 100	> 100	> 100	90.8	> 100	> 100	54.9	73.2	50.6										
CC1=NOC(=O)/C1=C/c1ccccc1O		> 100	> 100	> 100	> 100	> 100	> 100	> 100	> 100	> 100										
CC(=O)NC(CCCNCc1ccccc1)C(=O)NCc1ccccc1 (centres undefined)	> 100	> 100	> 100	> 100	> 100	> 100	> 100		> 100	> 100										
O=C(O)c1ccc([Se][Se]c2ccc(C(=O)O)cc2)cc1	91.7		49.6	54.1	42.9	> 100	34.5		68.3											
CC1=NCCc2c1[nH]c1cc(O)ccc21	> 100	> 100		> 100	> 100	> 100	> 100		> 100	> 100										
Cc1occc1C(=S)Nc1ccc(Cl)c(COC(C)(C)C)c1	50.5		28.9	34.8	30	30.3	32.1	41.8	31.1	30.4										
CC/C=C\C=C/C(=O)N/C=C/CC1Cc2cccc(O)c2C(=O)O1 (centres undefined)	56.4	> 100	> 100	> 100	39.7	73.8	42.2	6.2	> 100		22.2	11.5	23.3	62	15.1	25.2	19.1	2.22	41.5	
COc1ccc(C(=O)/C=C/c2ccc(/C=C/c3cc(OC)c(OC)c(OC)c3)cc2)cc1	8.54	> 100	54.7		14.3	71.1	> 100	> 100	> 100		2.57	3.03	5.09		3.92	10.4	2.62	1.98	13.2	
CC1SC(c2c(Cl)cccc2Cl)N(NC(=O)c2[nH]c3ccc(F)cc3c2-c2ccccc2)C1=O (centres undefined)	> 100	> 100	3.51	7.12	3.45	4.44	3.08		4.35		5.59	21.9	1.78	2.56	1.76	2.14	1.71		1.43	
CC1(C)SC2C(NC(=O)C(N)c3ccccc3)C(=O)N2C1C(=O)O (centres undefined)	> 100		> 100	> 100	> 100	> 100	> 100	> 100		> 100										
CCCCCCCCCc1cc(=O)c2ccc(OCc3ccccc3)cc2o1		> 100	> 100	> 100	> 100	> 100	> 100		> 100	> 100										
COC(=O)CCC(NC(=S)N/N=C(\C)c1nccs1)C(=O)OC (centres undefined)	> 100	> 100	> 100	> 100	> 100	> 100	> 100		> 100	> 100										
Nc1c(C(=O)Nc2cccc([N+](=O)[O-])c2)sc2nc3c(cc12)C(O)CCC3 (centres undefined)		> 100	> 72.4	> 100	> 100	> 100	> 100	> 100	> 100	> 67		0.852	6.3	15.9	4.53	13.5	4.09	1.96	26.9	9.54
CC1CCCCc2nc3c(c(=O)n21)CCCC3 (centres undefined)		> 100	> 100	> 100	> 100	> 100	> 100		> 100	> 100										
CCCC[C@H](NC(=O)[C@H]1CCCN1C)C(=O)N(C)[C@H](C[C@@H](OC(C)=O)c1nc(C(=O)N[C@@H](Cc2ccccc2)C[C@H](C)C(=O)OCC)cs1)C(C)C	4.84	> 33.3	> 33.3	> 33.3	6.38	9.96	> 33.3	5.24		32.7	0.00399	0.00726	0.0144	6.88	0.0083	0.0171	0.0125	< 0.00333		1.9
N#Cc1cnc2cc(OC[C@H](O)CO)c(NC(=O)CC3CSSC3)cc2c1Nc1ccc(OCc2cccc(F)c2)c(Cl)c1	2.49	0.361	1.33	2.13	1.24	9.6	0.208		2.06	8.04	1.09	0.122	0.465	0.873	0.514	1.76	0.0977		0.97	2.23
NC(=S)N/N=C(/CC(=O)c1ccccc1)C(=O)Nc1ccc(Cl)c(Cl)c1	> 100	> 100	> 100	> 100	> 100	> 100	> 100		> 100	> 100										
COC(=O)CCC1CCc2c(OC)ccc(O)c2C1=O (centres undefined)	> 100	> 100	> 100	> 100	> 100	> 100	> 100	> 100	> 100											
O=C(CC(=O)CC(O)(C(F)(F)F)C(F)(F)F)CC(O)(C(F)(F)F)C(F)(F)F	> 10	> 10	> 10	> 10	> 10	> 10	> 10		> 10	> 10										
Cc1c(C(=O)/C=C/c2csc3ccccc23)[n+](=O)c2ccccc2n1[O-]	4.91		3.17	6.09	2.62	3.09	2.65	8.69	8.06		1.78		1.64	2.79	1.32	1.64	1.37	1.79	2.29	
CCCc1[nH]nc(CCC(=O)N(Cc2ccccc2)Cc2ccccc2)c1CC	> 100	> 100		> 100	> 100	> 100			> 100											
CCCN=Cc1cc(Cc2ccc(O)c(C=NCCC)c2)ccc1O		4.71	9.22	57.4	14.4	32.1	7.19		50.5	8.03										
COc1ccc(-c2ccc(/C=N/n3c(COc4ccc(Cl)cc4Cl)n[nH]c3=S)o2)c([N+](=O)[O-])c1	43.7	47.4	> 100	49.2	46.3	54.2	31.3		45.1		11.7	19.3	22	16.8	16.1	29	17.5		19.9	
